{
  "source": "the Deep4Chem optical property database",
  "experiment": "solvent given as SMILES",
  "key": {"[1]": {"details": "in c1ccc2c(c1)c1ccccc1n2-c1ccc(-c2ccc(-n3c4ccccc4c4ccccc43)cc2)cc1"}, "[2]": {"details": "in O=P(c1ccccc1)(c1ccccc1)c1ccccc1Oc1ccccc1P(=O)(c1ccccc1)c1ccccc1"}},
  "note": "“And” between values parts separate entries of the source, which are not always exact repeats. Identical values can stand only once.",
  "data": [
    {"smiles": "Cc1cccc(-c2cccc(C)c2)c1", "values": [
      {"measurement": "fluorescence lifetime", "setting": "in C1CCCCC1", "result": 18, "unit": "ns"}
    ]},
    {"smiles": "O=P1(c2ccccc2)c2ccc(N3c4ccccc4Oc4ccccc43)cc2-c2cc(N3c4ccccc4Oc4ccccc43)ccc21", "values": [
      {"measurement": "fluorescence lifetime", "setting": "[1]", "result": 35.1, "unit": "ns"}
    ]},
    {"smiles": "Nc1ccccc1C(=O)O", "values": [
      {"measurement": "fluorescence lifetime", "setting": "in C1CCCCC1", "result": 5.7, "unit": "ns"},
      {"measurement": "fluorescence lifetime", "setting": "in CC#N", "result": 6.9, "unit": "ns"},
      {"measurement": "fluorescence lifetime", "setting": "in CCO", "result": 7.6, "unit": "ns"},
      {"measurement": "fluorescence lifetime", "setting": "in CS(C)=O", "result": 8.7, "unit": "ns"},
      {"measurement": "fluorescence lifetime", "setting": "in O", "result": "8.6 ns and 8.7 ns"},
      {"measurement": "fluorescence lifetime", "setting": "in OCC(F)(F)F", "result": 5.4, "unit": "ns"},
      {"measurement": "fluorescence lifetime", "setting": "in c1ccccc1", "result": 6.3, "unit": "ns"}
    ]},
    {"smiles": "CCCCCCN1C(=O)c2cccc3cc(/N=C\\c4cnc5ccccc5c4)cc(c23)C1=O", "values": [
      {"measurement": "fluorescence lifetime", "setting": "in ClC(Cl)Cl", "result": 13.7, "unit": "ns"}
    ]},
    {"smiles": "CCCCCCCCCCCCN1C(=O)c2c(c3ccc4cc(-c5ccc(C(F)(F)F)cc5)c(OC)cc4c3c3c2ccc2cc(-c4ccc(C(F)(F)F)cc4)c(OC)cc23)C1=O", "values": [
      {"measurement": "fluorescence lifetime", "setting": "in ClCCl", "result": 6.39, "unit": "ns"}
    ]},
    {"smiles": "[O-]c1c(-c2nc3ccccc3s2)cc2ccc3cccc4ccc1c2c34", "values": [
      {"measurement": "fluorescence lifetime", "setting": "in CC#N", "result": 3.81, "unit": "ns"},
      {"measurement": "fluorescence lifetime", "setting": "in CS(C)=O", "result": 4.7, "unit": "ns"}
    ]},
    {"smiles": "N#Cc1c(-n2c3ccccc3c3ccccc32)cccc1-n1c2ccccc2c2ccccc21", "values": [
      {"measurement": "fluorescence lifetime", "setting": "in Cc1ccccc1", "result": 2.6, "unit": "ns"},
      {"measurement": "fluorescence lifetime", "setting": "[2]", "result": 4, "unit": "ns"}
    ]},
    {"smiles": "O=C1OC(=O)c2ccc(N(c3ccccc3)c3ccc4ccccc4c3)c3cccc1c23", "values": [
      {"measurement": "fluorescence lifetime", "setting": "in C1CCOC1", "result": 1.09, "unit": "ns"},
      {"measurement": "fluorescence lifetime", "setting": "in CCCCCC", "result": 8.42, "unit": "ns"},
      {"measurement": "fluorescence lifetime", "setting": "in c1ccccc1", "result": 8.55, "unit": "ns"}
    ]},
    {"smiles": "COc1ccc(-n2c(C)ccc2C)cc1", "values": [
      {"measurement": "fluorescence lifetime", "setting": "in CC#N", "result": 5, "unit": "ns"}
    ]},
    {"smiles": "O=C1c2ccc3c4ccc5c6c(ccc(c7ccc(c2c37)C(=O)N1c1ccc(O)cc1)c64)C(=O)N(c1ccc(O)cc1)C5=O", "values": [
      {"measurement": "fluorescence lifetime", "setting": "in C1CCOC1", "result": 1.6, "unit": "ns"},
      {"measurement": "fluorescence lifetime", "setting": "in CN1CCCC1=O", "result": 0.2, "unit": "ns"},
      {"measurement": "fluorescence lifetime", "setting": "in CN(C)C=O", "result": "2.2 ns and 3.9 ns"}
    ]},
    {"smiles": "N#Cc1cccc2[nH]ccc12", "values": [
      {"measurement": "fluorescence lifetime", "setting": "in C1CCOC1", "result": 5.3, "unit": "ns"},
      {"measurement": "fluorescence lifetime", "setting": "in C1COCCO1", "result": 5.3, "unit": "ns"},
      {"measurement": "fluorescence lifetime", "setting": "in CC#N", "result": 5.4, "unit": "ns"},
      {"measurement": "fluorescence lifetime", "setting": "in CC(C)O", "result": 5.7, "unit": "ns"},
      {"measurement": "fluorescence lifetime", "setting": "in CCO", "result": 5.7, "unit": "ns"},
      {"measurement": "fluorescence lifetime", "setting": "in CO", "result": 5.8, "unit": "ns"},
      {"measurement": "fluorescence lifetime", "setting": "in CS(C)=O", "result": 7.4, "unit": "ns"},
      {"measurement": "fluorescence lifetime", "setting": "in NC=O", "result": 7.8, "unit": "ns"},
      {"measurement": "fluorescence lifetime", "setting": "in O", "result": 9.1, "unit": "ns"},
      {"measurement": "fluorescence lifetime", "setting": "in OCC(F)(F)F", "result": 6.3, "unit": "ns"},
      {"measurement": "fluorescence lifetime", "setting": "in [2H]O[2H]", "result": 9.3, "unit": "ns"}
    ]},
    {"smiles": "c1ccc(-c2nnc(-c3ccc(N4c5ccccc5Oc5ccccc54)cc3)o2)cc1", "values": [
      {"measurement": "fluorescence lifetime", "setting": "in Cc1ccccc1", "result": 11, "unit": "ns"},
      {"measurement": "fluorescence lifetime", "setting": "in c1ccc(-n2c(-c3c(-n4c5ccccc5c5ccccc54)cccc3-n3c4ccccc4c4ccccc43)nc3ccccc32)cc1", "result": 4.9, "unit": "ns"}
    ]},
    {"smiles": "CC(=O)Nc1ccc(S(=O)(=O)O)c(/N=N/c2c(O)c3ccccc3n(C)c2=O)c1", "values": [
      {"measurement": "fluorescence lifetime", "setting": "in CS(C)=O", "result": 0.06, "unit": "ns"}
    ]},
    {"smiles": "CC(C)(C)c1ccc(-c2nc3c4ccc(-c5cccc6ccccc56)cc4c4cc(-c5cccc6ccccc56)ccc4c3n2-c2ccc(C(C)(C)C)cc2)cc1", "values": [
      {"measurement": "fluorescence lifetime", "setting": "in ClCCl", "result": 7.4, "unit": "ns"}
    ]},
    {"smiles": "O=P1(c2ccccc2)c2cc(N3c4ccccc4Sc4ccccc43)ccc2-c2ccc(N3c4ccccc4Sc4ccccc43)cc21", "values": [
      {"measurement": "fluorescence lifetime", "setting": "[1]", "result": 46.1, "unit": "ns"}
    ]},
    {"smiles": "COc1ccc(C2=C(c3ccc(C)cc3)C(c3ccccc3)=[N+]3C2=Nc2c(-c4ccc(OC)cc4)c(-c4ccc(C)cc4)c(-c4ccccc4)n2[B-]3(F)F)cc1", "values": [
      {"measurement": "fluorescence lifetime", "setting": "in Cc1ccccc1", "result": 0.23, "unit": "ns"}
    ]},
    {"smiles": "CCCCN1C(=O)c2cc(Br)c3c4c(Br)cc5c6c(cc(Br)c(c7c(Br)cc(c2c37)C1=O)c64)C(=O)N(CCCC)C5=O", "values": [
      {"measurement": "fluorescence lifetime", "setting": "in ClC(Cl)Cl", "result": 2.9, "unit": "ns"}
    ]},
    {"smiles": "C/C=C/c1cccc(OC)c1", "values": [
      {"measurement": "fluorescence lifetime", "setting": "in CC#N", "result": 6.5, "unit": "ns"},
      {"measurement": "fluorescence lifetime", "setting": "in CCCCCC", "result": 5.9, "unit": "ns"}
    ]},
    {"smiles": "CCN(CC)c1ccc2cc(-c3ccc(-c4c5ccccc5c(-c5ccc(-c6cc7ccc(N(CC)CC)cc7oc6=O)cc5)c5ccccc45)cc3)c(=O)oc2c1", "values": [
      {"measurement": "fluorescence lifetime", "setting": "in ClC(Cl)Cl", "result": 8.9, "unit": "ns"}
    ]},
    {"smiles": "Nc1ccc2c(ccc3[n+]2[B-](F)(F)n2c-3cc3c4ccccc4c4ccccc4c32)c1", "values": [
      {"measurement": "fluorescence lifetime", "setting": "in ClCCl", "result": 2.96, "unit": "ns"}
    ]},
    {"smiles": "O=C1c2cccc3cc4ccccc4c(c23)C(=O)N1Cc1ccccn1", "values": [
      {"measurement": "fluorescence lifetime", "setting": "in CCO", "result": 15.2, "unit": "ns"}
    ]},
    {"smiles": "c1cc2c3c(cccc3c1)C(N1CCOCCNCCOCCOCC1)=N2", "values": [
      {"measurement": "fluorescence lifetime", "setting": "in CC#N", "result": 0.52, "unit": "ns"}
    ]},
    {"smiles": "COc1ccc(-c2nc(/C(C#N)=C/c3ccc(C#N)cc3)sc2-c2ccc(OC)cc2)cc1", "values": [
      {"measurement": "fluorescence lifetime", "setting": "in CC#N", "result": 2.9, "unit": "ns"}
    ]},
    {"smiles": "CCCCCCCCCCCCn1cccc1/C=C/c1ccc(/C=C/c2cccn2CCCCCCCCCCCC)cc1", "values": [
      {"measurement": "fluorescence lifetime", "setting": "in Cc1ccccc1", "result": 1.06, "unit": "ns"}
    ]},
    {"smiles": "CC(C)(C)c1cc(C(C)(C)C)c(-c2nnc(-c3ccc(-n4c5ccccc5c5ccccc54)cc3)o2)c(C(C)(C)C)c1", "values": [
      {"measurement": "fluorescence lifetime", "setting": "in CCO", "result": 2.25, "unit": "ns"}
    ]},
    {"smiles": "CCCCCCCCCCCCN1C(=O)c2c(c3ccc4cc(-c5ccccc5)c(OC)cc4c3c3c2ccc2cc(-c4ccccc4)c(OC)cc23)C1=O", "values": [
      {"measurement": "fluorescence lifetime", "setting": "in ClCCl", "result": 6.16, "unit": "ns"}
    ]},
    {"smiles": "Cc1cc(C)c(-c2c3ccccc3c3ccc4cc5c(-c6c(C)cc(C)cc6C)c6ccccc6c6ccc7cc2c3c4c7c56)c(C)c1", "values": [
      {"measurement": "fluorescence lifetime", "setting": "in ClCCl", "result": 11.5, "unit": "ns"}
    ]},
    {"smiles": "CCOC(=O)C1=CN(c2ccccc2)C=C(C(=O)OCC)C1c1ccccc1", "values": [
      {"measurement": "fluorescence lifetime", "setting": "in C1CCOC1", "result": 8.98, "unit": "ns"},
      {"measurement": "fluorescence lifetime", "setting": "in CO", "result": 15.1, "unit": "ns"}
    ]},
    {"smiles": "CC(C)c1cccc(C(C)C)c1N1C(=O)c2cccc3c(Oc4ccc(C(C)(C)C)cc4)ccc(c23)C1=O", "values": [
      {"measurement": "fluorescence lifetime", "setting": "in ClCCl", "result": 1.12, "unit": "ns"}
    ]},
    {"smiles": "[BH3-][P+]1(c2ccccc2)c2ccccc2-c2sc3ccccc3c21", "note": "(stereo unspecified)", "values": [
      {"measurement": "fluorescence lifetime", "setting": "in ClCCl", "result": 3, "unit": "ns"}
    ]},
    {"smiles": "CCC1(CC)c2ccccc2-c2c1c1c(c3c2C(CC)(CC)c2cc(-c4cccs4)ccc2-3)C(CC)(CC)c2cc(N(c3ccccc3)c3ccccc3)ccc2-1", "values": [
      {"measurement": "fluorescence lifetime", "setting": "in C1CCOC1", "result": 1.7, "unit": "ns"}
    ]},
    {"smiles": "CC(C)(C)c1ccc2c(c1)c1cc(C(C)(C)C)ccc1n2-c1cc[n+]2c(c1)-c1ccccc1O[B-]2(F)F", "values": [
      {"measurement": "fluorescence lifetime", "setting": "[2]", "result": 6.3, "unit": "ns"}
    ]},
    {"smiles": "FC(F)(F)C(F)(F)C(F)(F)C1=NC2=C(Br)C=C3c4cc(Br)c5nc(C(F)(F)C(F)(F)C(F)(F)F)nc6c(Br)cc(c4c56)=C4C=C(Br)C(=N1)C2C34", "note": "(stereo unspecified)", "values": [
      {"measurement": "fluorescence lifetime", "setting": "in C1CCOC1", "result": 2.1, "unit": "ns"}
    ]},
    {"smiles": "COc1ccsc1-c1ccc(-c2ccc(-c3sccc3OC)s2)s1", "values": [
      {"measurement": "fluorescence lifetime", "setting": "in CCC(C)C", "result": 0.61, "unit": "ns"}
    ]},
    {"smiles": "CN(C)c1ccc(C2=Nc3scc(-c4ccc([N+](=O)[O-])cc4)[n+]3[B-](F)(F)O2)cc1", "values": [
      {"measurement": "fluorescence lifetime", "setting": "in C1CCOC1", "result": 1.64, "unit": "ns"}
    ]},
    {"smiles": "CN1CCCc2cc(C3=Cc4cccc[n+]4[B-](F)(F)O3)ccc21", "values": [
      {"measurement": "fluorescence lifetime", "setting": "in ClC(Cl)Cl", "result": 3, "unit": "ns"}
    ]}
  ]
}
